The text below walks through data of patent US7585871B2, “Phenanthridine carbonyl phenols” (Wyeth, priority 2004, dated 2009).

The target of one data set is T1, human ERα (Homo sapiens, UniProt P03372).
T1 construct: expressed in transfected cells; host or cells: HAECT-1 cells (immortalized human aortic endothelial cells) infected with Ad5-wt-hERα adenovirus
T1 sequence (P03372 1-595): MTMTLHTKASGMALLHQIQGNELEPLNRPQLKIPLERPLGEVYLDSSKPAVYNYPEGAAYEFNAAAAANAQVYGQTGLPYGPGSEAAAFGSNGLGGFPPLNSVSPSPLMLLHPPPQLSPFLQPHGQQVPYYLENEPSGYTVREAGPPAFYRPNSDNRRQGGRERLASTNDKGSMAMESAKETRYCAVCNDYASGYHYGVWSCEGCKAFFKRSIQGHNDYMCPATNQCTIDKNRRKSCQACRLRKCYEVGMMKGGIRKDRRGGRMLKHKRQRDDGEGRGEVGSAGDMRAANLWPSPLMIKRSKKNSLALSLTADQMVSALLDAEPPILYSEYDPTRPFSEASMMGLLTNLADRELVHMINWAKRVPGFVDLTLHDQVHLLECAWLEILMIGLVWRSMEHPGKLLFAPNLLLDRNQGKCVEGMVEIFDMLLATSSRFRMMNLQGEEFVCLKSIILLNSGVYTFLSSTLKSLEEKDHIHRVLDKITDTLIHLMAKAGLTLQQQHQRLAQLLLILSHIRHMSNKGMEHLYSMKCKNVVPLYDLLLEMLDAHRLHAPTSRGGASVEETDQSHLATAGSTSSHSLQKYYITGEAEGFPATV
Kind of data set: IL-6 luciferase (IL6-luc) assay in ERα infected HAECT-1 cells. The class given is cell-based. The following applies: for IC50: ERα infected HAECT-1 cells, IL-1β, Ad5-IL-6(1250 bp).Luc virus, 15-20 h; for IL6-luc (% E2): efficacy relative to E2, value in parentheses after the IC50. The method, then:
After four hours, cells were washed with EBM-BSA and incubated overnight in the same medium. Following overnight incubation, cells were washed with EBM-BSA and infected for 2 hours with 6 ml of a 1:10 dilution of Ad5-3x(NFκB).Luc virus (Adenovirus luciferase expression vector driven by 3 repeats of the MHC NFκb site 5′ to the thymidine kinase promoter) in EBM-BSA. After two hours, cells were washed and incubated at 34° C. for 1 hour. […] Control (no ER infection) cells were processed as above without Ad5-wt-hERα virus infection.
ERα infected HAECT-1 cells or control cells were thawed, diluted 42× in warm EBM-BSA, plated into 96-well plates at 0.1 ml/well and incubated for 4 h at 34° C. […] After 15-20 h, cells are lysed with 50 ul of Promega Cell Culture Lysis reagent for ˜5 min at room temp on shaker. After lysing, 15 ul of lysate is transferred to luminometer plates for luciferase determination. […] Creatine kinase was determined from the rate of increase in A340 following addition of 100 uL of CK assay reagent (Sigma, cat. No 47-10) to the remainder of the cell lysate.
For IC50 and EC50 calculations, mean IL-6, luciferase or CK values versus log10 of the compound concentration were fitted to a four parameter logistic equation. The IC50/EC50 value, ‘Hill slope’, upper and lower limits of the curve were iteratively estimated.

Regarding `CCC1c2cc(F)ccc2-c2ccccc2N1C(=O)c1ccc(O)cc1F` (racemic) [Example 23, 4-[(6-ethyl-8-fluorophenanthridin-5(6H)-yl)carbonyl]-3-fluorophenol], the melting point (usually the temperature of the solid-liquid transition) is 109 to 111 °C. On human ERα, the IC50 (as a rule, the midpoint of a concentration-inhibition curve) was 0.001 µM and the “IL6-luc (% E2)” value is 107%.

Take `CC1c2ccccc2-c2ccc(Cl)cc2N1C(=O)c1cccc(O)c1` (racemic) [Example 24, 3-[(3-chloro-6-methylphenanthridin-5(6H)-yl)carbonyl]phenol]: the melting point was in the range of 176.2 to 177.9 °C.

With `CC1c2ccccc2-c2ccc(Cl)cc2N1C(=O)c1ccc(O)cc1` (racemic) [Example 27, 4-[(3-chloro-6-methylphenanthridin-5(6H)-yl)carbonyl]phenol], the melting point lay in the range of 165 to 165.9 °C.

On to `CC1c2ccccc2-c2ccc(F)cc2N1C(=O)c1cccc(O)c1` (racemic) [Example 33, 3-[(3-fluoro-6-methylphenanthridin-5(6H)-yl)carbonyl]phenol], for which the melting point fell in the range of 163.9 to 165 °C.

For `CC1c2ccccc2-c2ccc(F)cc2N1C(=O)c1ccc(O)cc1` (racemic) [Example 36, 4-[(3-fluoro-6-methylphenanthridin-5(6H)-yl)carbonyl]phenol], the melting point lay in the range of 134.5 to 135 °C.

For `C[C@@H]1c2ccccc2-c2ccc(F)cc2N1C(=O)c1cccc(O)c1` (single isomer, unassigned) [Example 34], at human ERα, the IC50 is 0.011 µM and the “IL6-luc (% E2)” value was 188%.

`C[C@H]1c2ccccc2-c2ccc(F)cc2N1C(=O)c1ccc(O)cc1` (single isomer, unassigned) [Example 38] displayed a melting point of 236.6 to 237.8 °C.

The compound `C[C@H]1c2ccccc2-c2ccc(F)cc2N1C(=O)c1ccc(O)cc1O` (single isomer, unassigned) [Example 41] showed a melting point of 182 to 184 °C. Also, on human ERα, half-maximal inhibition (IC50) required 0.272 µM and the “IL6-luc (% E2)” value was 88%.

`C[C@@H]1c2cc(F)ccc2-c2ccc(F)cc2N1C(=O)c1ccc(O)cc1` (single isomer, unassigned) [Example 43] had a melting point of 138 to 140 °C. In addition, on human ERα, the concentration for half-maximal inhibition (IC50) is 0.0015 µM and the “IL6-luc (% E2)” value is recorded as 147%.

The compound `C[C@H]1c2cc(F)ccc2-c2ccc(F)cc2N1C(=O)c1ccc(O)cc1` (single isomer, unassigned) [Example 44] had a melting point of 135 to 138 °C. On human ERα, the IC50 worked out at 0.13 µM and the “IL6-luc (% E2)” value is recorded as 132%.

With `C[C@@H]1c2cc(F)ccc2-c2ccccc2N1C(=O)c1ccc(O)cc1` [Example 1, 4-{[(6R)-8-fluoro-6-methylphenanthridin-5(6H)-yl]carbonyl}phenol], on human ERα, the IC50 stood at 0.005 µM and the “IL6-luc (% E2)” value was 100%.

Consider `C[C@H]1c2cc(F)ccc2-c2ccccc2N1C(=O)c1cccc(O)c1` [Example 2, 3-{[(6S)-8-fluoro-6-methylphenanthridin-5(6H)-yl]carbonyl}phenol], for which, on human ERα, the IC50 is 0.038 µM and the “IL6-luc (% E2)” value is 53%.

As to `C[C@H]1c2cc(F)ccc2-c2ccccc2N1C(=O)c1ccc(O)cc1` [Example 3, 4-{[(6S)-8-fluoro-6-methylphenanthridin-5(6H)-yl]carbonyl}phenol], at human ERα, the IC50 came to 0.414 µM and the “IL6-luc (% E2)” value came to 114%.

In turn, `C[C@@H]1c2cc(F)ccc2-c2ccccc2N1C(=O)c1cccc(O)c1` [Example 4, 3-{[(6R)-8-fluoro-6-methylphenanthridin-5(6H)-yl]carbonyl}phenol] came in with a melting point of 162 °C. In addition, on human ERα, the IC50 came out at 0.047 µM and the “IL6-luc (% E2)” value is 102%.

For `C[C@@H]1c2cc(F)ccc2-c2ccccc2N1C(=O)c1ccc(O)cc1F` [Example 5, 3-fluoro-4-{[(6R)-8-fluoro-6-methylphenanthridin-5(6H)-yl]carbonyl}phenol], at human ERα, the 50% inhibitory concentration (IC50) amounted to 0.009 µM and the “IL6-luc (% E2)” value was 97%.

Consider `C[C@H]1c2cc(F)ccc2-c2ccccc2N1C(=O)c1ccc(O)cc1F` [Example 6, 3-fluoro-4-{[(6S)-8-fluoro-6-methylphenanthridin-5(6H)-yl]carbonyl}phenol], for which, on human ERα, the half-inhibitory concentration (IC50) came out at 0.403 µM and the “IL6-luc (% E2)” value is recorded as 90%.

Turning to `C[C@@H]1c2cc(F)ccc2-c2ccccc2N1C(=O)c1cc(O)ccc1F` [Example 7, 4-fluoro-3-{[(6R)-8-fluoro-6-methylphenanthridin-5(6H)-yl]carbonyl}phenol], at human ERα, half-maximal inhibition (IC50) was put at 0.263 µM and the “IL6-luc (% E2)” value is 70%.

`C[C@@H]1c2cc(F)ccc2-c2ccccc2N1C(=O)c1ccc(O)c(F)c1` [Example 9, 2-fluoro-4-{[(6R)-8-fluoro-6-methylphenanthridin-5(6H)-yl]carbonyl}phenol]: on human ERα, inhibition was half-maximal at 0.031 µM (IC50) and the “IL6-luc (% E2)” value is given as 81%.

On to `C[C@H]1c2cc(F)ccc2-c2ccccc2N1C(=O)c1ccc(O)c(F)c1` [Example 10, 2-fluoro-4-{[(6S)-8-fluoro-6-methylphenanthridin-5(6H)-yl]carbonyl}phenol], for which, on human ERα, half-maximal inhibition (IC50) required 1.47 µM and the “IL6-luc (% E2)” value came to 68%.

With `C[C@@H]1c2cc(F)ccc2-c2ccccc2N1C(=O)c1ccc(O)c(Br)c1` [Example 13, 2-bromo-4-{[(6R)-8-fluoro-6-methylphenanthridin-5(6H)-yl]carbonyl}phenol], at human ERα, the IC50 came to 0.051 µM and the “IL6-luc (% E2)” value is listed as 102%.

On to `C[C@@H]1c2cc(F)ccc2-c2ccccc2N1C(=O)c1cc(O)ccc1Br` [Example 15, 4-bromo-3-{[(6R)-8-fluoro-6-methylphenanthridin-5(6H)-yl]carbonyl}phenol], for which, at human ERα, 0.301 µM corresponded to half-maximal inhibition (IC50) and the “IL6-luc (% E2)” value is given as 76%.

With `C[C@H]1c2cc(F)ccc2-c2ccccc2N1C(=O)c1cc(O)ccc1Br` [Example 16, 4-bromo-3-{[(6S)-8-fluoro-6-methylphenanthridin-5(6H)-yl]carbonyl}phenol], at human ERα, the midpoint of inhibition, the IC50, lay at 0.832 µM and the “IL6-luc (% E2)” value amounted to 91%.

With `COc1cc(C(=O)N2c3ccccc3-c3ccc(F)cc3[C@H]2C)ccc1O` [Example 17, 4-{[(6R)-8-fluoro-6-methylphenanthridin-5(6H)-yl]carbonyl}-2-methoxyphenol], on human ERα, the IC50 is 0.364 µM and the “IL6-luc (% E2)” value came out at 113%.

The compound `CC[C@H]1c2cc(F)ccc2-c2ccccc2N1C(=O)c1ccc(O)cc1` [Example 19, 4-{[(6S)-6-ethyl-8-fluorophenanthridin-5(6H)-yl]carbonyl}phenol] came in with a melting point of 103 to 104 °C. At human ERα, half-maximal inhibition (IC50) required 0.085 µM and the “IL6-luc (% E2)” value worked out at 88%.

In the case of `C[C@H]1c2ccccc2-c2ccc(Cl)cc2N1C(=O)c1cccc(O)c1` [Example 26, 3-{[(6S)-3-chloro-6-methylphenanthridin-5(6H)-yl]carbonyl}phenol], on human ERα, the IC50 worked out at 0.377 µM and the “IL6-luc (% E2)” value came to 49%.

On to `C[C@@H]1c2ccccc2-c2ccc(Cl)cc2N1C(=O)c1ccc(O)cc1O` [Example 31, 4-{[(6R)-3-chloro-6-methylphenanthridin-5(6H)-yl]carbonyl}benzene-1,3-diol], for which, at human ERα, the concentration for half-maximal inhibition (IC50) is 0.003 µM and the “IL6-luc (% E2)” value was determined as 87%.

Regarding `C[C@H]1c2ccccc2-c2ccc(Cl)cc2N1C(=O)c1ccc(O)cc1O` [Example 32, 4-{[(6S)-3-chloro-6-methylphenanthridin-5(6H)-yl]carbonyl}benzene-1,3-diol], at human ERα, half-maximal inhibition (IC50) required 0.789 µM and the “IL6-luc (% E2)” value was found to be 125%.
